Results from ChEMBL document CHEMBL2177051.
Activity calls are given as the source filed them. No cut-off for these calls is given here.

Columns and labels:
Details in all cases: Homo sapiens
HEK293 [1] = assay: Inhibition of proteasome beta5 in HEK cell lysates at 1 to 100 uM after 1 hr by MV151 competitive SDS-PAGE analysis
HEK293 [2] = assay: Inhibition of proteasome beta2 in HEK cell lysates at 1 to 100 uM after 1 hr by MV151 competitive SDS-PAGE analysis
HEK293 [3] = assay: Inhibition of proteasome beta1 in HEK cell lysates at 1 to 100 uM after 1 hr by MV151 competitive SDS-PAGE analysis
HEK293 [4] = assay: Inhibition of proteasome beta2 in HEK cell at 50 uM after 3 hrs by MV151 competitive SDS-PAGE analysis; type: cell-based
HEK293 [5] = assay: Inhibition of proteasome beta1 in HEK cell at 50 uM after 3 hrs by MV151 competitive SDS-PAGE analysis; type: cell-based
HEK293 [6] = assay: Inhibition of proteasome beta5 in HEK cell at 5 uM after 3 hrs by MV151 competitive SDS-PAGE analysis; type: cell-based

| Compound | inhibition (HEK293 [1]) | inhibition (HEK293 [2]) | inhibition (HEK293 [3]) | inhibition (HEK293 [4]) | inhibition (HEK293 [5]) | inhibition (HEK293 [6]) |
| --- | --- | --- | --- | --- | --- | --- |
| CC[C@H](C)[C@H](NC(=O)OC(C)(C)C)C(=O)N[C@H](C(=O)N[C@@H](CC(C)C)CS(=O)(=O)F)[C@@H](C)OCc1ccccc1 | Active | Active | Active | – | – | – |
| CC[C@H](C)[C@H](NC(=O)CN=[N+]=[N-])C(=O)N[C@H](C(=O)N[C@H](C(=O)N[C@@H](CC(C)C)CS(=O)(=O)F)[C@@H](C)O)[C@@H](C)CC | Active | Active | Active | – | – | – |
| CC(=O)N[C@@H](CC(C)C)C(=O)N[C@@H](CC(C)C)C(=O)N[C@@H](CC(C)C)C(=O)N[C@@H](CC(C)C)CS(=O)(=O)F | Active | Active | Active | – | – | – |
| CC(C)C[C@@H](CS(=O)(=O)F)NC(=O)[C@H](CC(C)C)NC(=O)[C@H](CC(C)C)NC(=O)OCc1ccccc1 | Active | Active | Active | – | – | – |
| CC(C)C[C@@H](CS(=O)(=O)F)NC(=O)[C@H](CC(C)C)NC(=O)[C@@H](N)CC(C)C | Active | Active | Active | – | – | – |
| CC[C@H](C)[C@H](N)C(=O)N[C@H](C(=O)N[C@H](C(=O)N[C@@H](CC(C)C)CS(=O)(=O)F)[C@@H](C)OCc1ccccc1)[C@@H](C)CC | Active | Active | Active | – | – | – |
| CC(C)C[C@@H](CS(=O)(=O)F)NC(=O)[C@H](CC(C)C)NC(=O)[C@H](CC(C)C)NC(=O)[C@H](CC(C)C)NC(=O)OCc1ccccc1 | Active | Active | Active | Active | Active | Active |
| CC(C)C[C@@H](CS(=O)(=O)F)NC(=O)[C@H](CC(C)C)NC(=O)[C@H](CC(C)C)NC(=O)OC(C)(C)C | Active | Active | Active | – | – | – |
| CC(C)C[C@@H](CS(=O)(=O)F)NC(=O)[C@H](CC(C)C)NC(=O)[C@H](CC(C)C)NC(=O)[C@@H](N)CC(C)C | Active | Active | Active | – | – | – |
| CC[C@H](C)[C@H](NC(=O)CN=[N+]=[N-])C(=O)N[C@H](C(=O)N[C@H](C(=O)N[C@@H](CC(C)C)CS(=O)(=O)F)[C@@H](C)OC(C)=O)[C@@H](C)CC | Active | Active | Active | – | – | – |
| CC(C)C[C@@H](CS(=O)(=O)F)NC(=O)[C@H](CC(C)C)NC(=O)[C@H](CC(C)C)NC(=O)[C@H](Cc1ccccc1)N=[N+]=[N-] | Active | Active | Active | – | – | – |
| CC(C)C[C@@H](CS(=O)(=O)F)NC(=O)[C@@H](N)Cc1ccccc1 | inactive | inactive | inactive | – | – | – |
| CC[C@H](C)[C@H](N)C(=O)N[C@H](C(=O)N[C@@H](CC(C)C)CS(=O)(=O)F)[C@@H](C)O | Active | Active | Active | – | – | – |
| CC[C@H](C)[C@H](NC(C)=O)C(=O)N[C@H](C(=O)N[C@H](C(=O)N[C@@H](CC(C)C)CS(=O)(=O)F)[C@@H](C)O)[C@@H](C)CC | Active | Active | Active | – | – | – |
| CC(C)C[C@@H](CS(=O)(=O)F)NC(=O)[C@@H](N)[C@@H](C)OCc1ccccc1 | inactive | inactive | inactive | – | – | – |
| CC[C@H](C)[C@H](NC(C)=O)C(=O)N[C@H](C(=O)N[C@H](C(=O)N[C@@H](CC(C)C)CS(=O)(=O)F)[C@@H](C)OCc1ccccc1)[C@@H](C)CC | Active | Active | Active | – | – | – |
| CC[C@H](C)[C@H](N)C(=O)N[C@H](C(=O)N[C@@H](CC(C)C)CS(=O)(=O)F)[C@@H](C)OCc1ccccc1 | Active | Active | Active | – | – | – |
| CC(C)C[C@@H](CS(=O)(=O)F)NC(=O)[C@H](Cc1ccccc1)NC(=O)c1cnccn1 | inactive | inactive | inactive | – | – | – |
| CC[C@H](C)[C@H](NC(=O)OC(C)(C)C)C(=O)N[C@H](C(=O)N[C@H](C(=O)N[C@@H](CC(C)C)CS(=O)(=O)F)[C@@H](C)OCc1ccccc1)[C@@H](C)CC | Active | Active | Active | – | – | – |
| CC[C@H](C)[C@H](N)C(=O)N[C@H](C(=O)N[C@H](C(=O)N[C@@H](CC(C)C)CS(=O)(=O)F)[C@@H](C)O)[C@@H](C)CC | Active | Active | Active | – | – | – |
